The source of these data is US20250326772A1, “MRGPRX2 ANTAGONISTS, PHARMACEUTICAL COMPOSITION INCLUDING MRGPRX2 ANTAGONIST, AND METHOD OF TREATING MRGPRX2-MEDIATED DISEASE OR DISORDER” (KYORIN PHARMACEUTICAL CO., LTD., priority 2024, published 2025).

This experiment deals with T1, MRGPRX2 (Homo sapiens, UniProt Q96LB1).
T1 sequence (Q96LB1 1-330): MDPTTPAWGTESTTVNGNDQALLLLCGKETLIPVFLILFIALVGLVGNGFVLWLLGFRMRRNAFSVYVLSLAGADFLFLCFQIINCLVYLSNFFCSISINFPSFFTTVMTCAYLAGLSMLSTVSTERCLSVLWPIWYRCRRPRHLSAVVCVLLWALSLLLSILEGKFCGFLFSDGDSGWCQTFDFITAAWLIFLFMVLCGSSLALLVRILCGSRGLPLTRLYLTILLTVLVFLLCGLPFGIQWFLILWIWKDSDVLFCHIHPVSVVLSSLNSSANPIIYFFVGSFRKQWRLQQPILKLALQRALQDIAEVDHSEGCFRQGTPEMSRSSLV
The experiment in a line: MRGPRX2 reporter cell assay (NFAT-RE luciferase, Substance P stimulation). The conditions noted are these: U2OS cells stably transfected with MRGPRX2 and NFAT-RE luciferase reporter, Substance P at EC80. Format: cell-based. The protocol:
MRGPRX2 Reporter Cell Assays U2OS cells (ATCC, Manassas, VA) were stably transfected with MRGPRX2 expression clones (GeneCopoeia, Rockville, MD) and the pGL4.30 [luc2P/NFAT-RE/Hygro] reporter plasmid (Promega, Madison, WI). Clonal cells were maintained in Growth Media (McCoy's 5A, 10% FBS, 495 μg/ml hygromycin, 2 μg/ml puromycin, 100 units/ml penicillin, and 100 ug/ml streptomycin). The day before assay, cells were plated to white 384-well microplates at 3000 (MRGPRX2) cells/well in 10 ul Assay Media (McCoy's 5A, 2% charcoal dextran stripped FBS, 100 units/ml penicillin, and 100 ug/ml streptomycin) (Gibco, Thermo Fisher) and allowed to adhere overnight. The following day, serially diluted compound stocks were added directly to the cells (final DMSO concentration of 0.5%) and pre-incubated for 30 minutes at 37° C., 5% CO2. The final concentration of Substance P (Tocris, Minneapolis, MN, or PEPTIDE INSTITUTE, Osaka, Japan) corresponding to EC80 was added to stimulate the (MRGPRX2) cells. Cells were returned to the incubator for 6 hrs, after which 5 ul of ONE-GLO substrate (Promega) was added. Luminescence was read within 15 minutes (BioTek, Winooski, VT or infinite M1000Pro, Tecan Japan, Kanagawa, Japan). Percent inhibition for each test compound was calculated using the formula: […] where: • A=the luminescence count of the “test compound” well • B=the median luminescence count of the “Vehicle (0.5% DMSO)” wells • C═the median luminescence count of the “Vehicle (0.5% DMSO)+5 uM of substance P” wells The mean percent inhibition of each concentration of “test compound” was used to generate dose-response curves. IC50 values were calculated using a four-parameter logistic fit to the data using GraphPad Prism software. • +++: […]
A general note: Reporter assays use an easily measured gene product as a stand-in for the process of interest.

For orientation: IC50 means the concentration needed to halve the response being measured. The low end stands for inhibition by little substance, the high end for a need for much substance.

A value given as a limit tells only on which side of the number the result lay.

Consider `[2H]C([2H])([2H])Oc1ccc(C#N)c(-c2c(-c3c(C)nn4c3OCCC4)[nH]c3ncccc23)c1` [EX. 239], for which the IC50 (class symbols) was under 10 nM.

Regarding `Cn1nc(-c2[nH]c3ncccc3c2-c2ccccc2C#N)c(C(F)(F)F)n1` [EX. 241], the IC50 (class symbols) is under 10 nM. Consider `COc1ccc(C#N)c(-c2c(-c3c(C(F)F)nn4c3OCCC4)[nH]c3ncccc23)c1` [EX. 242], for which the IC50 (class symbols) is under 10 nM. The same measure, in the same setting: in the case of `COc1ccc(C#N)c(-c2c(-c3c(C(F)F)nn4c3OCC4)[nH]c3ncccc23)c1` [EX. 243] it was under 10 nM. Compound `COc1ccc(C#N)c(-c2c(-c3c(C)nn4cccnc34)[nH]c3ncccc23)c1` [EX. 245] registered an IC50 (class symbols) of under 10 nM.

`[2H]C([2H])([2H])Oc1ccc(C#N)c(-c2c(-c3c(C(F)F)nn4c3OCCC4)[nH]c3ncccc23)c1` [EX. 247] displayed an IC50 (class symbols) of under 10 nM. The same measure, in the same setting: for `COc1ccc(C#N)c(-c2c(-c3c(C)nn4c(C)ccnc34)[nH]c3ncccc23)c1` [EX. 254] the value was under 10 nM. For `COc1ccc(C#N)c(-c2c(-c3c(C)nn4c3OCC(NC(=O)OC(C)(C)C)C4)[nH]c3ncccc23)c1` (stereo not shown) [EX. 256], where the note is “class symbols”, the IC50 is under 10 nM. For the compound `COc1ccc(C#N)c(-c2c(-c3c(C(F)F)nn4c3OCC(NC(=O)OC(C)(C)C)C4)[nH]c3ncccc23)c1` (stereo not shown) [EX. 257], the IC50 (class symbols) is under 10 nM. The same measure, in the same setting: for `N#Cc1ccccc1-c1c(-c2n[nH]cc2C(F)(F)F)[nH]c2ncccc12` [EX. 264] the value was under 10 nM. With `[2H]C([2H])([2H])Oc1ccc(C#N)c(-c2c(-c3c(C)nn4cc(C)cnc34)[nH]c3ncccc23)c1` [EX. 266], where the note is “class symbols”, the IC50 was under 10 nM. Same read-out and setting: in the case of `Cn1cc(-c2[nH]c3ncccc3c2-c2ccccc2C#N)c(CF)n1` [EX. 270] it was under 10 nM; in that of `N#Cc1ccccc1-c1c(-c2c(CF)nn3c2OCCC3)[nH]c2ncccc12` [EX. 271], under 10 nM. Compound `Cn1cc(-c2c(-c3c(C(F)F)nn4c3OCCC4)[nH]c3ncccc23)c(OC(F)F)n1` [EX. 272] yielded an IC50 of 2.9 nM. The compound also registered an IC50 (class symbols) of under 10 nM. For the setting “class symbols”, `COc1ccc(C#N)c(-c2c(-c3nn(C)cc3C(F)F)[nH]c3ncccc23)c1` [EX. 281] returned an IC50 of under 10 nM. `Cc1cc(-c2c(-c3cn(C)nc3C(F)F)[nH]c3ncccc23)c(C#N)s1` [EX. 287] had an IC50 (class symbols) of under 10 nM. In turn, `Cn1cc(-c2c(-c3cn(C)nc3C(F)F)[nH]c3ncccc23)c(OC(F)F)n1` [EX. 291] displayed an IC50 (class symbols) of 10 to 100 nM.

Consider `COc1ccc(F)cc1-c1[nH]c2ncccc2c1-c1cn(C)nc1C(F)F` [EX. 292], for which, under “class symbols”, the IC50 fell in the range of 100 to 1000 nM. On the same count and under the same terms, in the case of `Cc1ccc(F)c(-c2c(-c3cn(C)nc3C(F)(F)F)[nH]c3ncccc23)c1` [EX. 299] it was under 10 nM. The same measure, in the same setting: for `Cn1cc(-c2[nH]c3ncccc3c2-c2cc(F)ccc2C#N)c(C(F)F)n1` [EX. 300] the value was under 10 nM; for `COc1ccc(F)cc1-c1[nH]c2ncccc2c1C1=CCCCC1` [EX. 301, 3-(cyclohex-1-en-1-yl)-2-(5-fluoro-2-methoxyphenyl)-1H-pyrrolo[2,3-b]pyridine], 100 to 1000 nM; for `COc1ccccc1-c1[nH]c2ncccc2c1-c1ccccc1C#N` [EX. 307], under 10 nM. The same measure, in the same setting: for `COc1ccccc1-c1[nH]c2ncccc2c1-c1cc(C)ccc1F` [EX. 314] the value was under 10 nM; for `COc1ccccc1-c1[nH]c2ncccc2c1-c1cc(C)ccc1C#N` [EX. 316], under 10 nM. `COc1ccc(F)c(-c2c(-c3cc(F)ccc3OC)[nH]c3ncccc23)c1` [EX. 323] came in with an IC50 (class symbols) of under 10 nM. Under “class symbols”, `COc1ccc(F)cc1-c1[nH]c2ncccc2c1-c1cc(C)ccc1C#N` [EX. 326] yielded an IC50 of under 10 nM. As for `Cc1ccc(F)c(-c2c(-c3cc(F)ccc3O)[nH]c3ncccc23)c1` [EX. 344], the IC50 (class symbols) was under 10 nM. Same read-out and setting: in the case of `COc1ccc(F)c(-c2c(-c3cc(F)ccc3OC)[nH]c3ncccc23)c1` [EX. 345] it was under 10 nM.

Regarding `[2H]C([2H])([2H])Oc1ccc(F)cc1-c1[nH]c2ncccc2c1-c1ccccc1C#N` [EX. 346], under “class symbols”, the IC50 is under 10 nM. Same read-out and setting: in the case of `COc1ccc(F)cc1-c1[nH]c2ncccc2c1C1=CC(C)(C)CCC1OC` (stereo not shown) [EX. 351, 2-(5-fluoro-2-methoxyphenyl)-3-(6-methoxy-3,3-dimethylcyclohex-1-en-1-yl)-1H-pyrrolo[2,3-b]pyridine] it was 100 to 1000 nM; in that of `COc1ccc(C#N)c(-c2c(-c3c(C)nn4c3OCC(NC(C)=O)C4)[nH]c3ncccc23)c1` (stereo not shown) [EX. 354, N-[3-[3-(2-cyano-5-methoxy-phenyl)-1H-pyrrolo[2,3-b]pyridin-2-yl]-2-methyl-6,7-dihydro-5H-pyrazolo[5,1-b] [1,3]oxazin-6-yl]acetamide], under 10 nM; in that of `COc1ccc(C#N)c(-c2c(-c3c(C)nn4c3OCC(N)C4)[nH]c3ncccc23)c1` (stereo not shown) [EX. 355], under 10 nM. Still for that read-out and setting: for `COc1ccc(C#N)c(-c2c(-c3c(C)nn4c3OCC(NC(C)=O)C4)[nH]c3ncccc23)c1` (stereo not shown) [EX. 356] the value was under 10 nM; for `COc1ccc(C#N)c(-c2c(-c3c(C(F)F)nn4c3OCC(N)C4)[nH]c3ncccc23)c1` (stereo not shown) [EX. 357], under 10 nM; for `COc1ccc(C#N)c(-c2c(-c3c(C(F)F)nn4c3OCC(NC(C)=O)C4)[nH]c3ncccc23)c1` (stereo not shown) [EX. 358], under 10 nM. The same measure, in the same setting: for `COc1ccc(C#N)c(-c2c(-c3c(C)nn4c3OCC(N)C4)[nH]c3ncccc23)c1` (stereo not shown) [EX. 359] the value was under 10 nM; for `COc1ccc(C#N)c(-c2c(-c3c(C(F)F)nn4c3OC[C@H](N)C4)[nH]c3ncccc23)c1` [EX. 361], under 10 nM; for `COc1ccc(C#N)c(-c2c(-c3c(C(F)F)nn4c3OC[C@H](NC(C)=O)C4)[nH]c3ncccc23)c1` [EX. 362], under 10 nM. In the case of `COc1ccc(C#N)c(-c2c(-c3c(C(F)F)nn4c3OC[C@@H](N)C4)[nH]c3ncccc23)c1` [EX. 363], the IC50 (class symbols) is under 10 nM. Same read-out and setting: for `COc1ccc(C#N)c(-c2c(-c3c(C(F)F)nn4c3OC[C@@H](NC(C)=O)C4)[nH]c3ncccc23)c1` [EX. 364] the value was under 10 nM. `[2H]C([2H])([2H])Oc1ccc(C#N)c(-c2c(-c3c(C)nn4c3OC[C@@H](O)C4)[nH]c3ncccc23)c1` [EX. 366, 2-[2-[(6S)-6-hydroxy-2-methyl-6,7-dihydro-5H-pyrazolo[5,1-b] [1,3]oxazin-3-yl]-1H-pyrrolo[2,3-b]pyridin-3-yl]-4-(trideuteriomethoxy)benzonitrile]: where the note is “class symbols”, the IC50 is under 10 nM.

Under “class symbols”, `[2H]C([2H])([2H])Oc1ccc(C#N)c(-c2c(-c3c(C)nn4c3OCC(O)C4)[nH]c3ncccc23)c1` (stereo not shown) [EX. 367] displayed an IC50 of under 10 nM. The same measure, in the same setting: in the case of `COc1ccc(C#N)c(-c2c(-c3c(C(F)F)nn4c3OC[C@H](O)C4)[nH]c3ncccc23)c1` [EX. 368] it was under 10 nM; in that of `COc1ccc(C#N)c(-c2c(-c3c(C(F)F)nn4c3OC[C@@H](O)C4)[nH]c3ncccc23)c1` [EX. 369], under 10 nM; in that of `[2H]C([2H])([2H])Oc1ccc(C#N)c(-c2c(-c3c(C(F)F)nn4c3OC[C@H](O)C4)[nH]c3ncccc23)c1` [EX. 370], under 10 nM.

As to `N#Cc1ccccc1-c1c(-c2c(C(F)F)nn3c2OC[C@H](O)C3)[nH]c2ncccc12` [EX. 371], for the setting “class symbols”, the IC50 was under 10 nM. The same measure, in the same setting: in the case of `Cn1cc(-c2[nH]c3ncccc3c2-c2cc(Cl)ccc2C#N)c(C(F)F)n1` [EX. 375, 4-chloro-2-[2-[3-(difluoromethyl)-1-methyl-pyrazol-4-yl]-1 H-pyrrolo[2,3-b]pyridin-3-yl]benzonitrile] it was under 10 nM; in that of `[2H]C([2H])([2H])n1cc(-c2[nH]c3ncccc3c2-c2cc(OC)ccc2C#N)c(C(F)F)n1` [EX. 377], under 10 nM; in that of `Cc1cc(-c2c(-c3cnn4c3OCCC4)[nH]c3ncccc23)c(C#N)s1` [EX. 380], 10 to 100 nM. The same measure, in the same setting: in the case of `FC(F)Oc1nnccc1-c1c(-c2c(C(F)F)nn3c2OCCC3)[nH]c2ncccc12` [EX. 388, 3-(3-(3-(difluoromethoxy)pyridazin-4-yl)-1H-pyrrolo[2,3-b]pyridin-2-yl)-2-(difluoromethyl)-6,7-dihydro-5H-pyrazolo[5,1-b] [1,3]oxazine] it was 10 to 100 nM; in that of `FC(F)Oc1nnc(Cl)cc1-c1c(-c2c(C(F)F)nn3c2OCCC3)[nH]c2ncccc12` [EX. 389, 3-(3-(6-chloro-3-(difluoromethoxy)pyridazin-4-yl)-1H-pyrrolo[2,3-b]pyridin-2-yl)-2-(difluoromethyl)-6,7-dihydro-5H-pyrazolo[5,1-b] [1,3]oxazine], 10 to 100 nM.
